From the NIST ThermoML archive (doi:10.1016/j.jct.2004.12.008)
Numbers after ± are expanded uncertainties.

Experiment: xn = mol fraction of the nth substance listed
Details: 101 kPa, Liquid

O=[N+]([O-])c1ccccc1 [nitrobenzene] + Cc1ccccc1
Details | mass density [kg/m3]
293.15 K, x2 = 0 | 1202.95 ± 2.3
293.15 K, x2 = 0.0629 | 1181.81 ± 2.1
293.15 K, x2 = 0.1476 | 1153.37 ± 1.9
293.15 K, x2 = 0.2138 | 1131.14 ± 1.8
293.15 K, x2 = 0.2787 | 1109.35 ± 1.7
293.15 K, x2 = 0.3587 | 1082.5 ± 1.5
293.15 K, x2 = 0.4142 | 1063.89 ± 1.4
293.15 K, x2 = 0.4831 | 1040.77 ± 1.3
293.15 K, x2 = 0.5232 | 1027.31 ± 1.2
293.15 K, x2 = 0.5771 | 1009.22 ± 1.1
293.15 K, x2 = 0.6321 | 990.75 ± 1.2
293.15 K, x2 = 0.6832 | 973.59 ± 1.4
293.15 K, x2 = 0.7234 | 960.08 ± 1.5
293.15 K, x2 = 0.8032 | 933.21 ± 1.8
293.15 K, x2 = 0.8562 | 915.34 ± 2
293.15 K, x2 = 0.9213 | 893.37 ± 2.2
303.15 K, x2 = 0 | 1193.56 ± 2.2
303.15 K, x2 = 0.0567 | 1174.37 ± 2.1
303.15 K, x2 = 0.1332 | 1148.52 ± 1.9
303.15 K, x2 = 0.185 | 1131.03 ± 1.8
303.15 K, x2 = 0.2304 | 1115.73 ± 1.7
303.15 K, x2 = 0.2798 | 1099.1 ± 1.6
303.15 K, x2 = 0.3674 | 1069.64 ± 1.4
303.15 K, x2 = 0.4026 | 1057.82 ± 1.4
303.15 K, x2 = 0.4656 | 1036.69 ± 1.2
303.15 K, x2 = 0.5072 | 1022.73 ± 1.2
303.15 K, x2 = 0.5782 | 998.94 ± 1.1
303.15 K, x2 = 0.6576 | 972.35 ± 1.3
303.15 K, x2 = 0.7235 | 950.27 ± 1.6
303.15 K, x2 = 0.7965 | 925.82 ± 1.8
303.15 K, x2 = 0.8643 | 903.09 ± 2.1
303.15 K, x2 = 0.9354 | 879.23 ± 2.3
313.15 K, x2 = 0 | 1183.37 ± 2.1
313.15 K, x2 = 0.0674 | 1160.46 ± 2
313.15 K, x2 = 0.1534 | 1131.33 ± 1.8
313.15 K, x2 = 0.1978 | 1116.33 ± 1.7
313.15 K, x2 = 0.2576 | 1096.15 ± 1.6
313.15 K, x2 = 0.3254 | 1073.34 ± 1.4
313.15 K, x2 = 0.3789 | 1055.38 ± 1.3
313.15 K, x2 = 0.4577 | 1028.98 ± 1.2
313.15 K, x2 = 0.5067 | 1012.59 ± 1.1
313.15 K, x2 = 0.5564 | 996 ± 1.1
313.15 K, x2 = 0.6134 | 976.98 ± 1.2
313.15 K, x2 = 0.674 | 956.78 ± 1.5
313.15 K, x2 = 0.7435 | 933.64 ± 1.7
313.15 K, x2 = 0.8134 | 910.37 ± 2
313.15 K, x2 = 0.865 | 893.2 ± 2.1
313.15 K, x2 = 0.9134 | 877.09 ± 2.3
323.15 K, x2 = 0 | 1172.38 ± 2
323.15 K, x2 = 0.0479 | 1156.07 ± 1.9
323.15 K, x2 = 0.1289 | 1128.59 ± 1.7
323.15 K, x2 = 0.1874 | 1108.81 ± 1.6
323.15 K, x2 = 0.2671 | 1081.99 ± 1.4
323.15 K, x2 = 0.3371 | 1058.51 ± 1.3
323.15 K, x2 = 0.3961 | 1038.77 ± 1.2
323.15 K, x2 = 0.4628 | 1016.54 ± 1.1
323.15 K, x2 = 0.5342 | 992.79 ± 1.1
323.15 K, x2 = 0.6056 | 969.11 ± 1.3
323.15 K, x2 = 0.6854 | 942.7 ± 1.6
323.15 K, x2 = 0.7245 | 929.78 ± 1.7
323.15 K, x2 = 0.8056 | 903.01 ± 2
323.15 K, x2 = 0.8543 | 886.94 ± 2.2
323.15 K, x2 = 0.8965 | 873.03 ± 2.3
323.15 K, x2 = 0.9423 | 857.93 ± 2.5
333.15 K, x2 = 0 | 1160.59 ± 1.9
333.15 K, x2 = 0.0575 | 1141.04 ± 1.8
333.15 K, x2 = 0.1435 | 1111.97 ± 1.6
333.15 K, x2 = 0.2345 | 1081.38 ± 1.4
333.15 K, x2 = 0.2978 | 1060.21 ± 1.3
333.15 K, x2 = 0.3534 | 1041.68 ± 1.2
333.15 K, x2 = 0.4213 | 1019.15 ± 1.1
333.15 K, x2 = 0.4896 | 996.55 ± 0.98
333.15 K, x2 = 0.5634 | 972.23 ± 1.2
333.15 K, x2 = 0.6233 | 952.54 ± 1.4
333.15 K, x2 = 0.6856 | 932.12 ± 1.6
333.15 K, x2 = 0.7435 | 913.17 ± 1.9
333.15 K, x2 = 0.7947 | 896.44 ± 2
333.15 K, x2 = 0.8634 | 874.02 ± 2.3
333.15 K, x2 = 0.9067 | 859.9 ± 2.4
333.15 K, x2 = 0.9424 | 848.26 ± 2.5
343.15 K, x2 = 0 | 1148 ± 1.9
343.15 K, x2 = 0.0523 | 1130.3 ± 1.7
343.15 K, x2 = 0.1389 | 1101.17 ± 1.5
343.15 K, x2 = 0.1924 | 1083.27 ± 1.4
343.15 K, x2 = 0.2684 | 1057.97 ± 1.2
343.15 K, x2 = 0.3289 | 1037.94 ± 1.1
343.15 K, x2 = 0.3889 | 1018.15 ± 1
343.15 K, x2 = 0.4521 | 997.4 ± 0.94
343.15 K, x2 = 0.5123 | 977.7 ± 1.1
343.15 K, x2 = 0.5931 | 951.38 ± 1.4
343.15 K, x2 = 0.6532 | 931.86 ± 1.6
343.15 K, x2 = 0.7234 | 909.14 ± 1.9
343.15 K, x2 = 0.7923 | 886.89 ± 2.1
343.15 K, x2 = 0.8534 | 867.19 ± 2.3
343.15 K, x2 = 0.8811 | 858.27 ± 2.4
343.15 K, x2 = 0.9421 | 838.64 ± 2.6
353.15 K, x2 = 0 | 1134.61 ± 1.8
353.15 K, x2 = 0.0442 | 1119.76 ± 1.6
353.15 K, x2 = 0.1247 | 1092.87 ± 1.4
353.15 K, x2 = 0.1842 | 1073.14 ± 1.3
353.15 K, x2 = 0.2479 | 1052.11 ± 1.2
353.15 K, x2 = 0.2943 | 1036.87 ± 1.1
353.15 K, x2 = 0.3479 | 1019.33 ± 0.99
353.15 K, x2 = 0.4109 | 998.83 ± 0.89
353.15 K, x2 = 0.4671 | 980.61 ± 1.1
353.15 K, x2 = 0.5239 | 962.27 ± 1.3
353.15 K, x2 = 0.5791 | 944.5 ± 1.4
353.15 K, x2 = 0.6321 | 927.5 ± 1.6
353.15 K, x2 = 0.7913 | 876.69 ± 2.2
353.15 K, x2 = 0.8423 | 860.48 ± 2.3
353.15 K, x2 = 0.8742 | 850.36 ± 2.4
353.15 K, x2 = 0.9311 | 832.32 ± 2.6
